In experiment [1] the target is T1, human B1R receptor (hB1R) (Homo sapiens, UniProt P46663).
T1 construct: host or cells: CHO K1 cells
T1 sequence (P46663 1-353): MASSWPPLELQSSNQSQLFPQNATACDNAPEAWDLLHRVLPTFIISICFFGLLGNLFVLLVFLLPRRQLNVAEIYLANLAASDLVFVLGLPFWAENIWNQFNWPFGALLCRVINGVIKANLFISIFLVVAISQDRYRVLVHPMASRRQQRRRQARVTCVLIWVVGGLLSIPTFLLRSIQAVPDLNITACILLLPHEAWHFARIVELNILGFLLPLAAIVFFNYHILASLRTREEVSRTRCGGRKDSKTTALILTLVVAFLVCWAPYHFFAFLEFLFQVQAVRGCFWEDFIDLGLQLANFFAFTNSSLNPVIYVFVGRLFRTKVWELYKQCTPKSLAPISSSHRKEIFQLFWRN
In words: FLIPR Ca2+ assay (Fluo-4) on CHO K1 cells stably transfected with the human B1R gene. It counts as cell-based. The conditions noted are these: CHO-K1; test substance 10 μM; agonist Lys-Des-Arg9-bradykinin 0.5 nM; % inhibition compared to the maximum achievable inhibition. In a few lines:
(§1)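 CHO K1 cells stably expressing human or rat B1R, Fluo-4 loaded, read by FLIPR (Ex 488/Em 540, peak fluorescence). Compound at 10 μM gives % activation vs agonist. After 10 min, agonist added (human: Lys-Des-Arg9-bradykinin 0.5 nM; rat: Des-Arg9-bradykinin 100 nM); % inhibition relative to maximal achievable inhibition.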

The target in experiment [2] is T2, B1R receptor of rats (rB1R) (Rattus norvegicus, UniProt P97583).
T2 construct: host or cells: CHO K1 cells
T2 sequence (P97583 1-337): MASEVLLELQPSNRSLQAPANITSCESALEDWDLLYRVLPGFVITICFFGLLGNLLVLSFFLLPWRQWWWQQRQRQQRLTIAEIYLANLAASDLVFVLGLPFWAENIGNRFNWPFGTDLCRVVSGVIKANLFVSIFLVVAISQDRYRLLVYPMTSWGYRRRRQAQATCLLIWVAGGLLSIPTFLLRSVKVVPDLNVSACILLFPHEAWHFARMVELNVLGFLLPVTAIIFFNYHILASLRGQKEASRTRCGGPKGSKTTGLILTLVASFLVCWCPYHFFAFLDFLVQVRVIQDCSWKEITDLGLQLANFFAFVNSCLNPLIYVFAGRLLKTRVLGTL
In words: FLIPR Ca2+ assay (Fluo-4) on CHO K1 cells stably transfected with the B1R gene of rats. The conditions noted are these: CHO-K1; test substance 10 μM; agonist Des-Arg9-bradykinin 100 nM; % inhibition compared to the maximum achievable inhibition. The experiment is classed as cell-based. In a few lines:
as §1

`Cc1cc(C)c(S(=O)(=O)N2CCCCC2COCC(=O)N2CCn3cccc3C2CCc2ccccc2)c(C)c1` (stereo not drawn) [(45), 2-((1-(mesitylsulfonyl)piperidin-2-yl)methoxy)-1-(1-phenethyl-3,4-dihydro-pyrrolo[1,2-a]pyrazin-2(1H)-yl)ethanone]: the inhibition (commonly the change of the read-out against control, counted positive when it falls) at 10 µM was 45% in experiment [1] and 98% in experiment [2].
As for `Cc1cc(C)c(S(=O)(=O)N2CCCCC2COCC(=O)N2CCn3c(CN(C)C)ccc3C2c2ccccc2)c(C)c1` (stereo not drawn) [(46), 1-(6-((dimethylamino)methyl)-1-phenyl-3,4-dihydropyrrolo[1,2-a]pyrazin-2(1H)-yl)-2-((1-(mesitylsulfonyl)piperidin-2-yl)methoxy)ethanone], the inhibition at 10 µM in experiment [1] and in experiment [2] was 102% throughout.
For the molecule `Cc1cc(C)c(S(=O)(=O)N2CCCCC2COCC(=O)N2CCn3c(CN4CCCC4)ccc3C2c2ccccc2)c(C)c1` (stereo not drawn) [(47), 2-((1-(mesitylsulfonyl)piperidin-2-yl)methoxy)-1-(1-phenyl-6-(pyrrolidin-1-yl-methyl)-3,4-dihydropyrrolo[1,2-a]pyrazin-2(1H)-yl)ethanone], the values for the inhibition at 10 µM in experiment [1] and in experiment [2] were 101% and 103%, respectively.
As to `Cc1cc(C)c(S(=O)(=O)N2CCCCC2COCC(=O)N2CCn3c(CN4CCCCC4)ccc3C2c2ccccc2)c(C)c1` (stereo not drawn) [(48), 2-((1-(mesitylsulfonyl)piperidin-2-yl)methoxy)-1-(1-phenyl-6-(piperidin-1-yl-methyl)-3,4-dihydropyrrolo[1,2-a]pyrazin-2(1H)-yl)ethanone], the inhibition at 10 µM in experiment [1] and in experiment [2] was 103% each time.
On to `Cc1cc(C)c(S(=O)(=O)N2CCCCC2COCC(=O)N2CCn3c(CN4CCOCC4)ccc3C2c2ccccc2)c(C)c1` (stereo not drawn) [(49), 2-((1-(mesitylsulfonyl)piperidin-2-yl)methoxy)-1-(6-(morpholinomethyl)-1-phenyl-3,4-dihydropyrrolo[1,2-a]pyrazin-2(1H)-yl)ethanone], for which the inhibition at 10 µM in experiment [1] and in experiment [2] was 103% in each case.
For the molecule `Cc1cc(C)c(S(=O)(=O)N2CCCCC2COCC(=O)N2CCn3c(CN(C)C)ccc3C2Cc2ccccc2)c(C)c1` (stereo not drawn) [(50), 1-(1-benzyl-6-((dimethylamino)methyl)-3,4-dihydropyrrolo[1,2-a]pyrazin-2(1H)-yl)-2-((1-(mesitylsulfonyl)piperidin-2-yl)methoxy)ethanone], the inhibition at 10 µM worked out at 100% in experiment [1] and 102% in experiment [2].
Taken in the same sequence, the figures for `Cc1cc(C)c(S(=O)(=O)N2CCCCC2COCC(=O)N2CCn3c(CN(C)C)ccc3C2CCc2ccccc2)c(C)c1` (stereo not drawn) [(51), 1-(6-((dimethylamino)methyl)-1-phenethyl-3,4-dihydropyrrolo[1,2-a]pyrazin-2(1H)-yl)-2-((1-(mesitylsulfonyl)piperidin-2-yl)methoxy)ethanone] were 101% and 101%.
For `CCCCC1c2ccc(CN(C)C)n2CCN1C(=O)COCC1CCCCN1S(=O)(=O)c1c(C)cc(C)cc1C` (stereo not drawn) [(52), 1-(1-butyl-6-((dimethylamino)methyl)-3,4-dihydropyrrolo[1,2-a]pyrazin-2(1H)-yl)-2-((1-(mesitylsulfonyl)piperidin-2-yl)methoxy)ethanone], the inhibition at 10 µM in experiment [1] amounted to 103%; in experiment [2] it was 100%.
`Cc1cc(C)c(S(=O)(=O)N2CCCCC2COCC(=O)N2CCn3c(CN(C)C)ccc3C2c2cccs2)c(C)c1` (stereo not drawn) [(53), 1-(6-((dimethylamino)methyl)-1-(thiophen-2-yl)-3,4-dihydropyrrolo[1,2-a]pyrazin-2(1H)-yl)-2-((1-(mesitylsulfonyl)piperidin-2-yl)methoxy)ethanone]: the results for the inhibition at 10 µM in experiment [1] and in experiment [2] were 92% and 102%, respectively.
Turning to `CCC1c2ccc(CN(C)C)n2CCN1C(=O)COCC1CCCCN1S(=O)(=O)c1c(C)cc(C)cc1C` (stereo not drawn) [(54), 1-(6-((dimethylamino)methyl)-1-ethyl-3,4-dihydropyrrolo[1,2-a]pyrazin-2(1H)-yl)-2-((1-(mesitylsulfonyl)piperidin-2-yl)methoxy)ethanone], the inhibition at 10 µM in experiment [1] was determined as 102%; in experiment [2] it was 100%.
As for `CCC1c2cccn2CCN1C(=O)COCC1CCCCN1S(=O)(=O)c1c(C)cc(C)cc1C` (stereo not drawn) [(55), 1-(1-ethyl-3,4-dihydropyrrolo[1,2-a]pyrazin-2(1H)-yl)-2-((1-(mesitylsulfonyl)piperidin-2-yl)methoxy)ethanone], the inhibition at 10 µM in experiment [1] amounted to 98%; in experiment [2] it was 103%.
As for `CCCC1c2cccn2CCN1C(=O)COCC1CCCCN1S(=O)(=O)c1c(C)cc(C)cc1C` (stereo not drawn) [(56), 2-((1-(mesitylsulfonyl)piperidin-2-yl)methoxy)-1-(1-propyl-3,4-dihydropyrrolo[1,2-a]pyrazin-2(1H)-yl)ethanone], the inhibition at 10 µM amounted to 95% in experiment [1] and 102% in experiment [2].
Regarding `Cc1cc(C)c(S(=O)(=O)N2CCCCC2COCC(=O)N2CCn3cccc3C2C(C)C)c(C)c1` (stereo not drawn) [(57), 1-(1-isopropyl-3,4-dihydropyrrolo[1,2-a]pyrazin-2(1H)-yl)-2-((1-(mesitylsulfonyl)piperidin-2-yl)methoxy)ethanone], the results for the inhibition at 10 µM in experiment [1] and in experiment [2] were 102% and 103%, respectively.
Take `CCC1c2ccc(C)n2CCN1C(=O)COCC1CCCCN1S(=O)(=O)c1c(C)cc(C)cc1C` (stereo not drawn) [(58), 1-(1-ethyl-6-methyl-3,4-dihydropyrrolo[1,2-a]pyrazin-2(1H)-yl)-2-((1-(mesitylsulfonyl)piperidin-2-yl)methoxy)ethanone]: the inhibition at 10 µM in experiment [1] stood at 97%; in experiment [2] it was 103%.
Regarding `Cc1cc(C)c(S(=O)(=O)N2CCCCC2COCC(=O)N2CCn3c(C)ccc3C2C(C)C)c(C)c1` (stereo not drawn) [(59), 1-(1-isopropyl-6-methyl-3,4-dihydropyrrolo[1,2-a]pyrazin-2(1H)-yl)-2-((1-(mesitylsulfonyl)piperidin-2-yl)methoxy)ethanone], the inhibition at 10 µM was 85% in experiment [1] and 103% in experiment [2].
For `COc1cc(C)c(S(=O)(=O)N2CCCCC2COCC(=O)N2CCn3cccc3C2CCc2ccccc2)c(C)c1` (stereo not drawn) [(60), 2-((1-(4-methoxy-2,6-dimethylphenylsulfonyl)piperidin-2-yl)methoxy)-1-(1-phenethyl-3,4-dihydropyrrolo[1,2-a]pyrazin-2(1H)-yl)ethanone] the same measures were 87% and 102%.
Take `COc1cc(C)c(S(=O)(=O)N2CCCCC2COCC(=O)N2CCn3c(CN(C)C)ccc3C2c2ccccc2)c(C)c1` (stereo not drawn) [(61), 1-(6-((dimethylamino)methyl)-1-phenyl-3,4-dihydropyrrolo[1,2-a]pyrazin-2(1H)-yl)-2-((1-(4-methoxy-2,6-dimethylphenylsulfonyl)piperidin-2-yl)methoxy)ethanone]: the inhibition at 10 µM in experiment [1] amounted to 102%; in experiment [2], 101%.
As to `COc1cc(C)c(S(=O)(=O)N2CCCCC2COCC(=O)N2CCn3c(CN4CCCC4)ccc3C2c2ccccc2)c(C)c1` (stereo not drawn) [(62), 2-((1-(4-methoxy-2,6-dimethylphenylsulfonyl)piperidin-2-yl)methoxy)-1-(1-phenyl-6-(pyrrolidin-1-ylmethyl)-3,4-dihydropyrrolo[1,2-a]pyrazin-2(1H)-yl)ethanone], the inhibition at 10 µM in experiment [1] worked out at 102%; in experiment [2], 101%.
Turning to `COc1cc(C)c(S(=O)(=O)N2CCCCC2COCC(=O)N2CCn3c(CN4CCCCC4)ccc3C2c2ccccc2)c(C)c1` (stereo not drawn) [(63), 2-((1-(4-methoxy-2,6-dimethylphenylsulfonyl)piperidin-2-yl)methoxy)-1-(1-phenyl-6-(piperidin-1-ylmethyl)-3,4-dihydropyrrolo[1,2-a]pyrazin-2(1H)-yl)ethanone], the inhibition at 10 µM was 104% in experiment [1] and 103% in experiment [2].
Taken in the same sequence, the figures for `COc1cc(C)c(S(=O)(=O)N2CCCCC2COCC(=O)N2CCn3c(CN4CCOCC4)ccc3C2c2ccccc2)c(C)c1` (stereo not drawn) [(64), 2-((1-(4-methoxy-2,6-dimethylphenylsulfonyl)piperidin-2-yl)methoxy)-1-(6-(morpholinomethyl)-1-phenyl-3,4-dihydropyrrolo[1,2-a]pyrazin-2(1H)-yl)ethanone] were 103% and 102%.
Consider `COc1cc(C)c(S(=O)(=O)N2CCCCC2COCC(=O)N2CCn3c(CN(C)C)ccc3C2Cc2ccccc2)c(C)c1` (stereo not drawn) [(65), 1-(1-benzyl-6-((dimethylamino)methyl)-3,4-dihydropyrrolo[1,2-a]pyrazin-2(1H)-yl)-2-((1-(4-methoxy-2,6-dimethylphenylsulfonyl)piperidin-2-yl)methoxy)ethanone], for which the figures for the inhibition at 10 µM in experiment [1] and in experiment [2] were 102% and 100%, respectively.
